Measured values reported in patent US10908171B2, “Additive channels” (Emulate Inc., priority 2016, dated 2021).
Entries after “also recorded” stand apart in the source; their conditions may differ. Counter-ions that a name gives are not always drawn. Positions of bridges follow the written chain, without caps; N, C: chain ends. Non-standard residues stand in square brackets, D forms with d. Residues, ends and D or L forms follow the SMILES beside them. hArg = N=C(N)NCCCC[C@H](N)C(=O)O; Mpa = O=C(O)CCS

What was measured:
platelets = experiment: Vessel-On-Chip platelet coverage / aggregation, fluorescence imaging of CD41-labelled platelets in perfused re-calcified blood; type: cell-based, human; conditions: for platelet coverage: endothelial pre-treatment TNF-α 50 ng/ml 6 hours, or blood with sCollagen 10 μg/ml, vs blood alone; for platelet aggregate formation / platelet coverage: hu5C8 240 μg/ml, sCD40L 10 ng/ml, alone or combined, 60 μl/minute, compared to untreated blood
Method: (§1) Briefly, human blood was drawn in citrate buffer and used within 4 hours. Platelets were stained using fluorescently labeled non-blocking antibodies for the platelet surface marker CD41 and low dosages of fluorescent fibrinogen were added in order to visualize fibrin deposition. Blood was re-calcified in order to re-establish the full coagulation potential, then introduced in the biomimetic vessel-on-chip from the main inlet (embodiments of inlets shown in FIG. 18A-1, FIG. 18A-2 and FIG. 19C). The outlet of the chip was connected to a pulling syringe pump with a system of tubing and connectors made of medical grade silicon that excludes any metal components or potential causes of platelet activation (FIG. 5A).
After 14 minutes of perfusion, the flow was interrupted and the chips were immediately imaged via fluorescence microscopy (FIG. 18C and FIG. 19D). In healthy conditions, endothelial cells will provide an antithrombotic surface where blood can flow smoothly, and indeed we detected minimal platelet adhesion or fibrin deposition in our vessel-on-chip after blood perfusion in control conditions, FIG. 18C, Blood.
Experiments with Blood: Blood Samples And Endothelium: Citrated human blood (Research Blood Components, Cambridge, Mass.) was used within 4 hours of a blood draw in order to minimize pre-analytical effects on platelet function. Before every experiment, each one of the endothelialized channels (i.e. microchannels having an endothelial cell layer) was inspected via light microscopy. Samples showing any sign of discontinuity in the endothelium were discarded. […] USA) was at room temperature for 20 minutes.
Platelets: Platelets were labeled with human CD41-PE antibody (10 μL/ml, Invitrogen) directly added to the blood and incubated at room temperature for 5 minutes.
(§2) Adding Blood to a Vessel-On-Chip And Flow Conditions: A medical grade plastic reservoir was mounted on the chip, then 800 μl of the blood sample was pipetted into the reservoir. The chip was perfused with the blood by withdrawing it at a rate of 60 μl/minute using a syringe pump. The citrated blood was re-calcified 2 minutes after the beginning of each experiment by adding 100 μl/ml of a solution containing 100 mM calcium chloride and 75 mM magnesium chloride to the blood to permit calcium- and magnesium-dependent platelet function and coagulation.
(§3) Fluorescence Image analysis: Chips perfused with blood samples were immediately imaged via fluorescence microscopy (Olympus IX83, 10× objective UPLFLN10X2, Orca-Flash 4.0 CMOS Camera). Each chamber was inspected along its entire length and 5 images (about 0.25 cm) were captured from the central area of the chamber. Image processing and quantification was performed with an automatic macro compiled in ImageJ and numerical values corresponding to platelet coverage or fibrin florescence were collected and statistically analyzed in Graphpad Prism V7.
(§4) Platelet Coverage: A percentage of signal coverage (or Platelet coverage) was computed from the binary image as the ratio of bright pixels to the total number of pixels in the image. Image processing and quantification was performed with an automatic macro compiled in ImageJ in order to ensure unbiased signal measurements. Numerical values corresponding to platelet coverage or fibrin fluorescence (signal intensity) were collected and statistically analyzed in Graphpad Prism V7.

fibrin = experiment: Vessel-On-Chip fibrin deposition, fluorescent fibrinogen imaging; type: cell-based, human; conditions: for fibrin signal intensity: endothelial pre-treatment TNF-α 50 ng/ml 6 hours, or blood with sCollagen 10 μg/ml, vs blood alone; for fibrin deposition on the endothelium: hu5C8 240 μg/ml, sCD40L 10 ng/ml, alone or combined, compared to untreated blood
Method: as §1, §2
Visualizing Fibrin Deposition: When analyzing the formation of fibrin, 10 μg/ml of fluorescently labeled fibrinogen (Alexa 488, Invitrogen) was also added to the blood. While fluorescent fibrinogen was barely detected as a diffused fluorescence, fibrin deposition on inflamed cells and sparse clots was easily distinguished since fibrin formed filamentous structures produce a signal intensity that is clearly observed above a background threshold.
as §3, §4

[1] = system: thrombin anti-thrombin complex (TAT); experiment: Thrombin anti-thrombin (TAT) ELISA in plasma of chip effluent; type: cell-based, human; conditions: for levels of TAT: plasma from blood flowing out of the chip, vs untreated blood
Method: Thrombin converts fibrinogen into fibrin during clot formation, and anti-thrombin plays a role in maintaining homeostasis by inhibiting the effect of thrombin. Formation of TAT in the microdevice confirms that local and intrinsic generation of thrombin, a potent platelet agonist, occurs in the model and that counter regulatory mechanisms for coagulation are retained. Thus, blood sampled from the Vessel-On-Chip was analyzed for thrombin anti-thrombin complex (TAT), an accepted clinical biomarker for procoagulation^48,49. TAT refers to a factor released upon activation of the coagulation cascade and one of the biomarkers associated with thrombotic events occurring in patients affected with deep vein thrombosis (DVT) or Systemic lupus erythematosus (SLE)^45,46. An enzyme-linked immunosorbent assay (ELISA) was used to quantify the thrombin anti-thrombin complex (TAT).
Thrombin-Anti Thrombin (TAT) Measurement via ELISA: Thrombin Anti-Thrombin (TAT) levels were analyzed in plasma from blood flowing out of the chip device by removing a sample from the outflow port. Thus TAT levels were evaluated in sample effluents collected from the outflow port of the chip using the Human TAT ELISA Kit (Siemens Healthineers) according to the user manual.
Blood sampled from the Vessel-On-Chip outflow port was analyzed for thrombin anti-thrombin complex (TAT), a factor released upon activation of the coagulation cascade and one of the biomarkers associated with thrombotic events occurring in patients affected with deep vein thrombosis (DVT) or SLE^45,46. TAT is an accepted clinical biomarker for procoagulation^48,49. An enzyme-linked immunosorbent assay (ELISA) was used to quantify the thrombin anti-thrombin complex (TAT).

FcγRIIa = experiment: hu5C8-mediated thrombosis on-chip, FcγRIIa dependence (platelet coverage, fibrin deposition, TAT); type: cell-based, human; conditions: with sCD40L, IV.3 1 μg/ml block or IgG2σ variant in place of hu5C8
Excerpt: Recent studies conducted on humanized mice expressing the human Fcγ receptors (FCGR2A) have shown that this receptor plays a role in thrombosis leading to the IC-mediated toxicity^12,16,21. […] In order to investigate if the IC5c8-induced thrombosis that we observed in our vessel-on-chip system also relies on an Fc-mediated mechanism, we used two different tool molecules: IgG2σ and IV.3 (FIG. 25A). The IgG2σ variant of hu5C8 has an engineered Fc region^48 that eliminates affinity for the FcγRIIa, while the monoclonal antibody IV.3 is a blocking antibody binding to FcγIIa. Briefly, equimolar concentrations of IgG2σ […] hu5c8 were incubated with […] sCD40L for 20 minutes to form ICIgG2σ or IC5c8, respectively.
Some of the blood samples were treated with IV.3 (1 μg/ml) for 10 minutes to block the FcγRIIa, and then incubated for 20 more minutes with IC5c8. Finally, blood alone (control) or blood incubated with IC5c8, ICIgG2σ or IV.3 was perfused through the biomimetic microfluidic-on-chip for about 10 minutes. We tested 15 donors and all the tested conditions described above were tested in duplicates and analyzed as percentage of platelet coverage based on fluorescence microscopic imaging (FIG. 25B). Five of the donors were also tested for fibrin deposition (FIG. 25C). Finally, effluents plasma obtained from a total of 7 of the donors (including the 5 mentioned before) were used to assess TAT via ELISA (FIG. 25D). […]
Blood from several human donors were aliquoted into groups for the following treatments: controls (PBS), sCD40L, combined hu5C8/sCD40L, combined hu5C8 (IgG2σ/sCD40L combined, and combined hu5C8/sCD40L/IV.3. Each condition was tested with a minimum of 3 donors to a maximum of 15 donors, and all conditions were tested in duplicates and analyzed for platelet coverage (FIG. 25B), fibrin deposition (FIG. 25C), or increased formation of TAT measured in the eluates (FIG. 25D). Platelet coverage and fibrin deposition following treatment were normalized and reported as fold-increase over untreated control values for each donor.

[2] = lupus and/or Crohn's disease; cited from earlier work
ICAM1 = ICAM1 immunostaining of endothelium; type: cell-based, human; conditions: TNF-α stimulated vs control
Method: ICAM1 is shown with examples identified by white arrows. One example of a DAPI stained nuclei is shown inside of a white circle.
TNF-alpha Stimulation: In some experiment endothelial cells were stimulate with 50 ng/ml of TNF (Sigma) for 6 hours in order to induce vascular inflammation before blood perfusion.

re-calcified blood = experiment: On-chip anticoagulation of outflowing blood through the anticoagulant port; set-up: species or system human; conditions: introduced through the anticoagulant port; vs chips without anticoagulant port
Excerpt: In order to functionally test the system, re-calcified blood was perfused through the inlet while anticoagulant, e.g. citrate buffer, was introduced online from the port situated next to the outflow port. Thus, blood obtained from the effluent of chips equipped with the anticoagulant port or without anticoagulant port were compared (FIG. 6). From a qualitative point of view the difference was striking.
In order to functionally test the additive channel (i.e. microfluidic chamber(s)) attached to the outflow port of a Vessel-On-Chip, re-calcified blood was perfused through the inlet port while citrate was introduced online from a port situated next to the outflow port, flowing through the additive channel. Thus, blood obtained from the effluent of chips equipped with the anticoagulant port (additive channel) or without anticoagulant port were compared (FIG. 6). From a qualitative point of view the difference was striking.

[3] = Eptifibatide 2 μg/ml, endothelium inflamed with TNF-α, n=4

sCollagen: soluble collagen (Soluble Calf Skin, Type I), a standard platelet activator
platelet coverage (platelets): increased areas of platelet coverage | fibrin signal intensity (fibrin): increased | levels of TAT [1]: minimally increased; also recorded: elevated levels of TAT

N=C(N)NCCCC[C@@H]1NC(=O)CCSSC[C@@H](C(N)=O)NC(=O)[C@@H]2CCCN2C(=O)[C@H](Cc2c[nH]c3ccccc23)NC(=O)[C@H](CC(=O)O)NC(=O)CNC1=O [Eptifibatide] ([Mpa][hArg]GDWPC-NH2; disulfide 1-7)
platelet aggregation (platelets; [3]): significantly inhibited | inhibitory effect on platelet aggregation and fibrin clot formation (platelets; Eptifibatide 2 μg/ml, following treatment with sCollagen, n=4): comparatively modest | platelet adhesion (image analysis) (platelets; Eptifibatide 2 μg/ml, samples treated with TNF-α, n=4): completely inhibited | platelet coverage in stimulated, pro-thrombotic conditions (platelets; FIG. 18E-1, TNF-α or sCollagen with Eptifibatide, n=4 donors): suppressed | fibrin clot formation (fibrin; [3]): significantly inhibited | fibrin signal (image analysis) (fibrin; Eptifibatide 2 μg/ml, samples treated with TNF-α): a significant amount of fibrin signal was still detectable | fibrin deposition in stimulated, pro-thrombotic conditions (fibrin; FIG. 18E-2, TNF-α or sCollagen with Eptifibatide, n=4 donors): suppressed | TAT increment associated with TNF-α-induced inflammation ([1]; Eptifibatide treatment): did not inhibit | TAT increment due to sCollagen treatment ([1]; Eptifibatide treatment): entirely suppressed

hu5C8 (IgG2σ): IgG2σ variant of hu5C8 with an engineered Fc region that eliminates affinity for FcγRIIa
hu5C8-mediated thrombosis on-chip (platelet coverage, fibrin deposition, TAT) (FcγRIIa): did not show signs of thrombosis in any of the endpoints | hu5C8-mediated thrombosis on-chip (platelet coverage, fibrin deposition, TAT) (FcγRIIa; listed as IgG2σ): suppressed | hu5C8-mediated thrombosis on-chip (platelet coverage, fibrin deposition, TAT) (FcγRIIa; listed as hu5C8-IgG2σ): not detected

hu5C8: humanized monoclonal IgG1 antibody against CD40L, alternatively named anti-CD154
platelet aggregate formation / platelet coverage (platelets): no significant treatment-related effects | fibrin deposition on the endothelium (fibrin): no significant treatment-related effects | thromboembolism and cardiovascular events during clinical trials [2]: multiple incidents of thromboembolism and cardiovascular events

TNF-α
expression of ICAM1 in the endothelium (ICAM1): increased expression; also recorded: higher | platelet coverage (platelets): increased areas of platelet coverage | fibrin signal intensity (fibrin): increased | levels of TAT [1]: significantly increased; also recorded: elevated levels of TAT

O=C(O)CC(O)(CC(=O)O)C(=O)O [sodium citrate]
state of blood collected from the effluent (re-calcified blood): soluble (not clotted) blood

B1: sCD40L: soluble CD40 ligand (CD154); recombinant human sCD40 Ligand (protein, UniProt P29965 47-261, looked up)
extracellular domain: HRRLDKIEDERNLHEDFVFMKTIQRCNTGERSLSLLNCEEIKSQFEGFVKDIMLNKEETKKENSFEMQKGDQNPQIAAHVISEASSKTTSVLQWAEKGYYTMSNNLVTLENGKQLTVKRQGLYYIYAQVTFCSNREASSQAPFIASLCLKSPGRFERILLRAANTHSSAKPCGQQSIHLGGVFELQPGASVFVNVTDPSQVSHGTGFTSFGLLKL
modifications: extracellular domain
increase in platelet coverage in some donors (platelets; fold-increase over untreated control): about 2 fold | platelet aggregate formation / platelet coverage (platelets): no significant treatment-related effects; also recorded: not statistically significant | fibrin deposition on the endothelium (fibrin): no significant treatment-related effects
